Measured values as given in patent US20100105111A1, “METHOD FOR PRODUCTION OF OPTICALLY ACTIVE AMINO ACID” (Mitsubishi Gas Chemical Company, Inc., priority 2007, published 2010).

Assays:
[1] = target: T1, aminocaprolactam racemase derived from Achromobacter obae (Achromobacter obae, UniProt Q7M181); details: activity for 2-aminobutyric acid amide is 100; cited from earlier work
T1 sequence (Q7M181 1-436): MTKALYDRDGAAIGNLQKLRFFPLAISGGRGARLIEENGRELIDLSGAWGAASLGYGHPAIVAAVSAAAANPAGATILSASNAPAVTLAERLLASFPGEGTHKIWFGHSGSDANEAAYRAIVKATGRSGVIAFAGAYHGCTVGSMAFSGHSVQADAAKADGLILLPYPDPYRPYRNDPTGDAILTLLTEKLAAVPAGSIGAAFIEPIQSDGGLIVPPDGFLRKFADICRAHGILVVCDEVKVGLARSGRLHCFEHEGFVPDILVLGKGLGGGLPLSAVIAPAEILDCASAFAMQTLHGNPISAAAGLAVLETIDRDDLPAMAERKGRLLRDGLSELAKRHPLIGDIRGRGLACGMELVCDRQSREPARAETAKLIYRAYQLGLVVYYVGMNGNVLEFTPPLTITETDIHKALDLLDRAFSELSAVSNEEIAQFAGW

[2] = system: nitrile hydratase derived from Rhodococcus opacus 71D; experiment: Substrate specificity of the purified enzyme from Rhodococcus opacus 71D (aminonitrile to amino acid amide, HPLC); details: for Relative activity for each substrate: enzymatic properties, activity for 2-aminobutyronitrile is 100; for Relative activity: 30° C., 0.1 M potassium phosphate buffer pH 7.0, activity for 2-aminobutyronitrile = 100
[3] = target: D-aminopeptidase derived from Ochrobactrum anthropi (Brucella anthropi, UniProt Q9ZBA9); details: activity for D-2-aminobutyric acid amide is 100; cited from earlier work
Chain of D-aminopeptidase derived from Ochrobactrum anthropi (Q9ZBA9 whole entry, looked up): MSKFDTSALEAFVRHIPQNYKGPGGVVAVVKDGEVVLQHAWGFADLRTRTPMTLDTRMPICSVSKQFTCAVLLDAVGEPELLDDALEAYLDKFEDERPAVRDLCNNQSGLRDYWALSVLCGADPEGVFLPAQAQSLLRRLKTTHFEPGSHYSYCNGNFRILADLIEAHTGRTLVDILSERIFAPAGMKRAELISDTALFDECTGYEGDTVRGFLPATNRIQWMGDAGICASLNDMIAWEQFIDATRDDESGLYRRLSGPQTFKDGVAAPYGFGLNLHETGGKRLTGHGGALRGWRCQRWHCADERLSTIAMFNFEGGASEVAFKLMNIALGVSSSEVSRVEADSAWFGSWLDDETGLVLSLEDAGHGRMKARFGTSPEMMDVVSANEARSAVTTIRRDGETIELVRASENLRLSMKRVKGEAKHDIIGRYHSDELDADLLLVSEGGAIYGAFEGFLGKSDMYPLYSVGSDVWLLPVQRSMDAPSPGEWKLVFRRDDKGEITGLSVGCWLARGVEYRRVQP

[4] = system: L-amino acid amidase derived from Brevundimonas diminuta; details: activity for L-2-aminobutyric acid amide is 100; cited from earlier work
[5] = system: enzyme selectively converting the L-amino acid amide into the L-amino acid, Xanthobacter flavus; details: activity for L-2-aminobutyric acid amide is 100; cited from earlier work

For `CCCC[C@H](N)C(N)=O` [L-norleuicinamide], the “Relative activity for each substrate” value [1] is listed as 56.

In the case of `CCC(N)C(N)=O` (stereo not drawn) [2-aminobutyric acid amide], the “Relative activity for each substrate” value [1] is listed as 100.

For `N#CC(N)c1ccccc1` (stereo not drawn) [Phenylglycinonitirle], the “Relative activity for each substrate” value [2] was 177 and the Relative activity ([2]; substrate 20 mM) was 177.

For `CCCC[C@@H](N)C(N)=O` [D-norleuicinamide], the “Relative activity for each substrate” value [3] is given as 2.7.

In the case of `NC(=O)[C@@H](N)CO` [L-serinamide], the “Relative activity for each substrate” value [1] is given as 17 and the “Relative activity for each substrate” value [4] is given as 2.9.

In the case of `CC[C@@H](N)C(N)=O` [D-2-aminobutyric acid amide], the “Relative activity for each substrate” value [3] is given as 100.

In the case of `CCC(N)C#N` (stereo not drawn) [2-aminobutyronitrile], the “Relative activity for each substrate” value [2] is reported as 100 and the Relative activity ([2]; substrate 20 mM) is reported as 100.

For `CC(C)(C)[C@H](N)C(N)=O` [L-t-leuicinamide], the “Relative activity for each substrate” value [4] is listed as 0.2 and the “Relative activity for each substrate” value [5] is listed as 8.4.

In the case of `NC(=O)[C@H](N)c1ccccc1` [D-phenylglycinamide], the “Relative activity for each substrate” value [3] is listed as 2.3.

In the case of `CCC[C@H](N)C(N)=O` [L-norvalinamide], the “Relative activity for each substrate” value [1] is listed as 63.

In the case of `CCC[C@@H](N)C(N)=O` [D-norvalinamide], the “Relative activity for each substrate” value [3] is listed as 6.

In the case of `CC(N)C#N` (stereo not drawn) [Alaninonitrile], the “Relative activity for each substrate” value [2] is reported as 77 and the Relative activity ([2]; substrate 20 mM) is reported as 77.0.

In the case of `C[C@H](N)C(N)=O` [L-alaninamide], the “Relative activity for each substrate” value [1] is given as 78 and the “Relative activity for each substrate” value [4] is given as 3.4.

For `CSCC[C@H](N)C(N)=O` [L-methioninamide], the “Relative activity for each substrate” value [1] is listed as 35 and the “Relative activity for each substrate” value [4] is listed as 85.4.

For `CC[C@H](N)C(N)=O` [L-2-aminobutyric acid amide], the “Relative activity for each substrate” value [4] is given as 100 and the “Relative activity for each substrate” value [5] is given as 100.

In the case of `CC(C)C[C@H](N)C(N)=O` [L-leuicinamide], the “Relative activity for each substrate” value [1] is given as 48 and the “Relative activity for each substrate” value [4] is given as 92.7.

For `C[C@@H](O)[C@H](N)C(N)=O` [L-threoninamide], the “Relative activity for each substrate” value [1] is listed as 63 and the “Relative activity for each substrate” value [4] is listed as 14.6.

For `C[C@@H](N)C(N)=O` [D-alaninamide], the “Relative activity for each substrate” value [3] is given as 333.

In the case of `NC(=O)[C@H](N)CO` [D-serinamide], the “Relative activity for each substrate” value [3] is given as 97.

For `C[C@H](O)[C@@H](N)C(N)=O` [D-threoninamide], the “Relative activity for each substrate” value [3] is listed as 30.

For `CC(C)C[C@H](N)C#N` [leucinonitrile], the “Relative activity for each substrate” value [2] was 11.8.

For `CC[C@H](C)[C@H](N)C(N)=O` [L-isoleuicinamide], the “Relative activity for each substrate” value [4] is given as 30.2.

In the case of `N#C[C@@H](N)Cc1ccccc1` [Phenylalaninonitrile], the “Relative activity for each substrate” value [2] is reported as 42.9 and the Relative activity ([2]; substrate concentration 10 mM) is reported as 42.9.

In the case of `NC(=O)[C@@H](N)Cc1ccccc1` [L-phenylalaninamide], the “Relative activity for each substrate” value [1] is listed as 2, the “Relative activity for each substrate” value [4] is listed as 104 and the “Relative activity for each substrate” value [5] is listed as 111.

For `CSCC[C@@H](N)C(N)=O` [D-methioninamide], the “Relative activity for each substrate” value [3] is listed as 6.7.

In the case of `CC(C)[C@H](N)C#N` [Valinonitrile], the “Relative activity for each substrate” value [2] is reported as 15.1 and the Relative activity ([2]; substrate 20 mM) is reported as 15.1.

For `CC(C)(C)C(N)C#N` (stereo not drawn) [t-leuicinonitrile], the “Relative activity for each substrate” value [2] was 1.80 and the Relative activity ([2]; substrate 20 mM) was 1.8.

For `CC(C)[C@H](N)C(N)=O` [L-valinamide], the “Relative activity for each substrate” value [4] is listed as 17.7 and the “Relative activity for each substrate” value [5] is listed as 65.

For `NC(=O)[C@@H](N)c1ccccc1` [L-phenylglycinamide], the “Relative activity for each substrate” value [5] is listed as 113.
